Measured values taken from patent US20110136766A1, “AURORA KINASE INHIBITORS” (Vitae Pharmaceuticals, Inc., priority 2008, published 2011).
Read-outs that look alike come from different tables or passages of the source.

How the values were obtained:
[1] = biological target: T1, full-length human Aurora A (Homo sapiens, UniProt O14965); assay: Aurora A phosphocellulose filter binding kinase activity assay; assay type: biochemical; conditions: 11 nM Aurora A, 10 μM ATP, 50 μM Kemptide, 45 min; read-out: Aur-A IC50
T1 construct: The full-length human Aurora A carrying His6 tag at the N-terminus; His6 (N); purchased Invitrogen, Carlsbad, Calif
T1 sequence (O14965 1-403): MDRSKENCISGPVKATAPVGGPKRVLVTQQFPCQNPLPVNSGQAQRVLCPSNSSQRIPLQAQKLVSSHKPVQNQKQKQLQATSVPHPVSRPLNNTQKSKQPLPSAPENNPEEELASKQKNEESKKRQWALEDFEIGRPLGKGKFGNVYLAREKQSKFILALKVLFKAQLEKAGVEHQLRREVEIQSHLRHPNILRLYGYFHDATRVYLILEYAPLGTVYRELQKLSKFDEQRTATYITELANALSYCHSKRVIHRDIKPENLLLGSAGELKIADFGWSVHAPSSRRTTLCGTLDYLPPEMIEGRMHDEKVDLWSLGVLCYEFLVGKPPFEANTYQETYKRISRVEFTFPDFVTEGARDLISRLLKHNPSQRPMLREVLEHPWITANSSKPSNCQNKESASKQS
Procedure: (§1) Kinase activity of Aurora kinases was measured by phosphocellulose filter binding assay. The full-length human Aurora A carrying His6 tag at the N-terminus (Invitrogen, Carlsbad, Calif.) and the full-length human Aurora B (N-terminal GST fusion) co-expressed and co-purified with the His6-INCENP INBOX, aminoacids 803-918 (Carna BioSciences, Japan) were used as the enzyme in the assays. Tested compounds were diluted in DMSO and pre-incubated with the enzyme and ATP/Mg^2+ mixture for at least 10 minutes. The reaction was started by addition of the Kemptide peptide substrate (LRRASLG) and allowed to proceed for 45 min at room temperature. Each reaction in a final volume of 40 μl contained 50 μM Kemptide, 10 μM [γ-^33P]ATP (1 Ci/mmol) and either 11 nM Aurora A or 1.5 nM Aurora B/INCENP complex in the buffer containing 10 mM MgCl2, 5% DMSO, 20 mM MOPS, pH 7.2, 25 mM β-glycerol phosphate, 5 mM EGTA, 1 mM Na3VO4 and either 0.1 mg/ml of BSA and 1 mM DTT for Aurora A or 0.01% Triton-X100 and 2 mM DTT for Aurora B. The reaction was stopped with 25 μl of 5% H3PO4, and 45 μl of the mixture was transferred into a MultiScreen-PH filterplate (Millipore) pre-washed with 0.85% H3PO4. The filterplate was washed 4 times with 200 μl of 0.85% H3PO4 on a vacuum manifold. Scintillation fluid (50 μl of Ultima Gold™ LLT, PerkinElmer, Waltham, Mass.) was added to each well, and after 1-hr incubation at room temperature the plates were counted on MicroBeta (PerkinElmer, Waltham, Mass.) plate reader. […] Percent inhibition values were calculated based on the counts of the positive and negative controls, and these values were regressed against inhibitor concentration and fit into a four parameter model. From this fit the IC50 values (the inhibitor concentration at which 50% inhibition occurs) were derived as the inflection point on the semi-logarithm inhibition curve.

[2] = biological target: T2, full-length human Aurora B/INCENP complex (Homo sapiens, UniProt Q96GD4); assay: Aurora B phosphocellulose filter binding kinase activity assay; assay type: biochemical; conditions: 1.5 nM Aurora B/INCENP complex, 10 μM ATP, 50 μM Kemptide, 45 min; read-out: Aur-B IC50
T2 construct: the full-length human Aurora B (N-terminal GST fusion); GST (N); purchased Carna BioSciences, Japan
Procedure: as §1

[3] = system: Colo205; assay: CellTiter-Glo cell viability assay, Colo205; assay type: cell-based; conditions: Homo sapiens, read-out: Colo205 IC50
Description: (§2) The CellTiter-Glo® Luminescent Cell Viability Assay is a homogeneous method of determining the number of viable cells in culture based on quantitation of the ATP present, which signals the presence of metabolically active cells. The homogeneous assay procedure involves addition of a single reagent directly to cells cultured in serum-supplemented medium. The homogeneous format results in cell lysis and generation of a luminescent signal proportional to the amount of ATP present. The CellTiter-Glo® Assay relies on the properties of a proprietary thermostable luciferase (Ultra-Glo. Recombinant Luciferase), which generates a stable glow-type Luminescent signal. The half-life of the luminescent signal resulting from this reaction is greater than five hours. This extended half-life eliminates the need for reagent injectors and provides flexibility for continuous or batch-mode processing of multiple plates. The unique homogeneous format reduces pipetting errors that may be introduced during the multiple steps required by other ATP-measurement methods.
(§3) 96 Well cell culture plates were seeded with 10^3 mammalian cells (Colo205, HL-60, SW620, HCT116, MCF-7 and MV-411) in 100 μl culture medium. The cells were incubated overnight prior to initiating the assay. Control wells were prepared on a plate containing medium only to obtain a value for background luminescence.
(§4) Compounds to be tested were added to experimental wells and incubated for 72 hrs (Colo205, HL-60, MV-411), 168 hrs (HCT116, SW620) or 240 hrs (MCF-7). Wells were also set up to as vehicle controls with the addition of 0.1% DMSO. At the end of the incubation period, the plates were equilibrated to room temperature for approximately 30 minutes.
(§5) Lyophilized CellTiter-Glo® Substrate and the CellTiter-Glo® Buffer were warmed to room temperature. The CellTiter-Glo® Buffer was mixed with the CellTiter-Glo® Substrate to reconstitute the lyophilized enzyme/substrate mixture. This forms the CellTiter-Glo® Reagent. The contents were mixed by gently vortexing, swirling or by inverting the contents to obtain a homogeneous solution. 100 μl of CellTiter-Glo® Reagent was added to the cell culture medium present in each well. The contents were mixed for 2 minutes on an orbital shaker to induce cell lysis. The plates were allowed to incubate at room temperature for 10 minutes to stabilize luminescent signal. The contents of the 96 well cell culture plate were then transferred to a white 96 well Optiplate (Perkin Elmer). The luminescence was recorded on Wallac 1420 VICTOR^2 V Multilabel Platereader (An integration time of 0.25-1 second per well).
(§6) 10 mM DMSO stock Compounds were serially diluted threefold in DMSO. Subsequent dilutions made into cell culture media prior to addition to cells to maintain the DMSO concentration at or below 0.1% to avoid cell toxicity.
(§7) The IC50s in Table 2 are the concentration at which 50% growth inhibition relative to control occurs.

[4] = system: HCT116; assay: CellTiter-Glo cell viability assay, HCT116; assay type: cell-based; conditions: Homo sapiens, read-out: HCT116 IC50
Description: as §2, §3, §4, §5, §6, §7

[5] = system: HL-60; assay: CellTiter-Glo cell viability assay, HL-60; assay type: cell-based; conditions: Homo sapiens, read-out: HL-60 IC50
Description: as §2, §3, §4, §5, §6, §7

[6] = system: SW620; assay: CellTiter-Glo cell viability assay, SW620; assay type: cell-based; conditions: Homo sapiens, read-out: SW620 IC50
Description: as §2, §3, §4, §5, §6, §7

[7] = system: MCF-7; assay: CellTiter-Glo cell viability assay, MCF-7; assay type: cell-based; conditions: Homo sapiens, read-out: MCF-7 IC50
Description: as §2, §3, §4, §5, §6, §7

[8] = system: MV-411; assay: CellTiter-Glo cell viability assay, MV-411; assay type: cell-based; conditions: Homo sapiens, read-out: MV-411 IC50
Description: as §2, §3, §4, §5, §6, §7

[9] = COLO 205, Colorectal cancer, 72 hrs, 50% growth inhibition relative to control
[10] = HCT-116, Colorectal cancer, 168 hrs, 50% growth inhibition relative to control

T2 sequence (Q96GD4 whole entry, the tested form may be a part): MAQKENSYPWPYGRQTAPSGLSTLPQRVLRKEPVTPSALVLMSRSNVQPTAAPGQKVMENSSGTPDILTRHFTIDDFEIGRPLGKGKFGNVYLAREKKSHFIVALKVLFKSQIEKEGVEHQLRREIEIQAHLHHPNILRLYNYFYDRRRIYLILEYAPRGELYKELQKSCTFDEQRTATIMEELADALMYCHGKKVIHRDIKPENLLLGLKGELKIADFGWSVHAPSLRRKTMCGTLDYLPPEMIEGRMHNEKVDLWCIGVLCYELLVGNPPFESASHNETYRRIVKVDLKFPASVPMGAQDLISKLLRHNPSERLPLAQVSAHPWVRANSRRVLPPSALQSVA
T2 sequence (Q9NQS7 803-918 partner limits assumed): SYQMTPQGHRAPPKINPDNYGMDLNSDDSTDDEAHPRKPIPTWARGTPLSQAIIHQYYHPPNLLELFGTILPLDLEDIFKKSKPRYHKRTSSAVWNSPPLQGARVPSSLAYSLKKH

Row | SMILES | IC50 [1] | IC50 [2] | IC50 [3, 9] | IC50 [4, 10] | other results
1 | O=C(Cc1cc(Nc2ncnc3cc(-c4ccc(C(=O)N5CCN(CCO)CC5)cc4)ccc23)n[nH]1)Nc1cccc(F)c1F [Compound 15, N-(2,3-Difluorophenyl)-2-(3-(7-(4-(4-(2-hydroxyethyl)piperazine-1-carbonyl)phenyl)quinazolin-4-ylamino)-1H-pyrazol-5-yl)acetamide] | 1.89 nM | 0.63 nM | 3.07 nM | 1.71 nM | –
2 | CN1CCN(S(=O)(=O)c2ccc(-c3ccc4c(Nc5cc(CC(=O)Nc6cccc(F)c6)[nH]n5)ncnc4c3)cc2)CC1 [Compound 7, N-(3-fluorophenyl)-2-(3-(7-(4-(4-methylpiperazin-1-ylsulfonyl)phenyl)quinazolin-4-ylamino)-1H-pyrazol-5-yl)acetamide] | 13.9 nM | 0.93 nM | – | – | –
3 | O=C(Cc1cc(Nc2ncnc3cc(-c4ccc(C(=O)N5CCN(CCOP(=O)(O)O)CC5)cc4)ccc23)n[nH]1)Nc1cccc(F)c1 [Compound 13, 2-(4-(4-(4-(5-(2-(3-Fluorophenylamino)-2-oxoethyl)-1H-pyrazol-3-ylamino)quinazolin-7-yl)benzoyl)piperazin-1-yl)ethyl dihydrogen phosphate] | 1.91 nM | 0.34 nM | 9.39 nM | 6.43 nM | –
4 | O=C(Cc1cc(Nc2ncnc3cc(-c4ccc(C(=O)N5CCN(CC6CC6)CC5)cc4)ccc23)n[nH]1)Nc1cccc(F)c1 [Compound 9, 2-(3-(7-(4-(4-(Cyclopropylmethyl)piperazine-1-carbonyl)phenyl)quinazolin-4-ylamino)-1H-pyrazol-5-yl)-N-(3-fluorophenyl)acetamide] | 9.51 nM | 1.88 nM | 9.88 nM | 4.38 nM | –
5 | CCN(CCO)CCCOc1ccc2c(Nc3cc(CC(=O)Nc4cccc(F)c4)[nH]n3)ncnc2c1 [AZD1152HQPA, reference compound] | – | – | – | – | IC50 ([3]; COLO 205, 72 h): 23 nM; IC50 ([5]; HL-60, 72 h): 7.16 nM; IC50 ([6]; SW-620, 168 h): 20.9 nM; IC50 ([4]; HCT-116, 168 h): 14.3 nM; IC50 ([7]; MCF7, 240 h): 60.7 nM; IC50 ([8]; MV4-11, 72 h): 16.5 nM
6 | CC(=O)O[C@H]1C(=O)[C@@]2(C)[C@H]([C@H](OC(=O)c3ccccc3)[C@]3(O)C[C@H](OC(=O)[C@H](O)[C@@H](NC(=O)c4ccccc4)c4ccccc4)C(C)=C1C3(C)C)[C@]1(OC(C)=O)CO[C@@H]1C[C@@H]2O [Taxol, reference compound] | – | – | 2.54 nM | 2.04 nM | IC50 ([5]; HL-60, Leukemia, 72 hrs, 50% growth inhibition relative to control): 2.16 nM; IC50 ([6]; SW-620, Colorectal cancer, 168 hrs, 50% growth inhibition relative to control): 4.91 nM; IC50 ([7]; MCF7, Breast Cancer, 240 hrs, 50% growth inhibition relative to control): 0.58 nM; IC50 ([8]; MV4-11, Leukemia, 72 hrs, 50% growth inhibition relative to control): 6.2 nM
7 | O=C(Cc1cc(Nc2ncnc3cc(-c4ccc(C(=O)N5CCN(C6CC6)CC5)cc4)ccc23)n[nH]1)Nc1cccc(F)c1 [Compound 10, 2-(3-(7-(4-(4-Cyclopropylpiperazine-1-carbonyl)phenyl)quinazolin-4-ylamino)-1H-pyrazol-5-yl)-N-(3-fluorophenyl)acetamide] | 4.62 nM | 1.23 nM | 5.35 nM | 1.57 nM | –
8 | C[C@@H]1CN(C(=O)c2ccc(-c3ccc4c(Nc5cc(CC(=O)Nc6cccc(F)c6)[nH]n5)ncnc4c3)cc2)C[C@H](C)N1 [Compound 11, 2-(3-(7-(4-((3S,5R)-3,5-dimethylpiperazine-1-carbonyl)phenyl)quinazolin-4-ylamino)-1H-pyrazol-5-yl)-N-(3-fluorophenyl)acetamide] | 6.42 nM | 1.37 nM | 2.9 nM | 1.62 nM | –
9 | O=C(Cc1cc(Nc2ncnc3cc(-c4ccc(C(=O)N5CCN(CCF)CC5)cc4)ccc23)n[nH]1)Nc1cccc(F)c1 [Compound 12, 2-(3-(7-(4-(4-(2-Fluoroethyl)piperazine-1-carbonyl)phenyl)quinazolin-4-ylamino)-1H-pyrazol-5-yl)-N-(3-fluorophenyl)acetamide] | 2.86 nM | 0.74 nM | 7.82 nM | 3.98 nM | –
10 | O=C(Cc1cc(Nc2ncnc3cc(-c4ccc(C(=O)N5CCN(CCO)CC5)cc4)ccc23)n[nH]1)Nc1cc(F)cc(F)c1 [Compound 14, N-(3,5-Difluorophenyl)-2-(3-(7-(4-(4-(2-hydroxyethyl)piperazine-1-carbonyl)phenyl)quinazolin-4-ylamino)-1H-pyrazol-5-yl)acetamide] | 2.29 nM | 0.83 nM | 8.11 nM | 5.75 nM | –
11 | O=C(Cc1cc(Nc2ncnc3ccccc23)n[nH]1)Nc1cccc(F)c1 [Compound 8, N-(3-fluorophenyl)-2-(3-(quinazolin-4-ylamino)-1H-pyrazol-5-yl)acetamide] | 2480 nM | 14.9 nM | – | – | –
12 | Cc1cc(Nc2cc(N3CCN(C)CC3)nc(Sc3ccc(NC(=O)C4CC4)cc3)n2)n[nH]1 [VX-680, reference compound] | – | – | – | – | IC50 ([3]; COLO 205, 72 h): 30.2 nM; IC50 ([5]; HL-60, 72 h): 13.8 nM; IC50 ([6]; SW-620, 168 h): 21.8 nM; IC50 ([4]; HCT-116, 168 h): 18 nM; IC50 ([7]; MCF7, 240 h): 31 nM; IC50 ([8]; MV4-11, 72 h): 79 nM
